Drawing on the NIST ThermoML archive (doi:10.1021/je700599z), this text covers Glass transition temperature for one compound.

For this data set the following is noted: DTA.

Molecules are shown by their SMILES. Numbers after ± are expanded uncertainties.

Regarding `CCn1cc[n+](C)c1.NCC(=O)[O-]` [1-ethyl-3-methylimidazolium ammonioacetate], the Glass transition temperature was -62.0 ± 3 °C.
